# According to US20240287172A1, “PROTEIN BINDERS TO IRHOM2 EPITOPES” (SCIRHOM GMBH, priority 2019, published 2024):
# System: PMA-induced release of endogenous TNFα from human monocytic U-937 cells
# Assay: ELISA-based TNFα release assay, PMA-induced, U-937 cells
# Assay type: cell-based
# Conditions: U-937, 1 h, PMA 25 ng/ml, Batimastat at 10 μM
# Procedure: In brief, on day 1, Nunc black MaxiSorp® 96-well plates (Thermo Fisher Scientific, USA) were coated overnight with 100 μl per well of mouse anti-human TNFα capture antibody (provided as part of the DuoSet ELISA kit) at 4 μg/ml TBS at 4° C. On day 2, the capture antibody solution was removed and MaxiSorp® plates were blocked with 300 μl per well of TBS, 1% BSA at room temperature for 1-2 hours. Meanwhile, 80,000 U-937 (European Collection of Authenticated Cell Cultures, UK) cells in 80 μl of normal growth medium were seeded in each well of Greiner CELLSTAR V-bottom 96-well plates (Thermo Fisher Scientific, USA) and pre-incubated with 20 μl per well of standard growth medium supplemented with Batimastat (BB94, Abcam, UK) at 50 μM as positive control (for a final concentration of 10 μM in the resulting 100 μl sample volume), mouse IgG antibody (Thermo Fisher Scientific, USA) at 5 μg/ml as isotype control (for a final concentration of 1 μg/ml in the resulting 100 μl sample volume) or antibodies of the invention at 5 μg/ml (for a final concentration of 1 μg/ml in the resulting 100 μl sample volume) at 37° C., 5% CO2 for 30 minutes. […] Using an infinite M1000 (Tecan Group, Switzerland) microplate reader, the fluorescence of each well was collected at an excitation wavelength of 435 nm and an emission wavelength of 555 nm. […]
smiles,measurement,setting,value
CNC(=O)[C@H](Cc1ccccc1)NC(=O)[C@H](CC(C)C)[C@H](CSc1cccs1)C(=O)NO [Batimastat],inhibition at 10 µM,murine (m) and chimeric (ch) antibodies and IgG at 3 μg/ml,98.7%
same,inhibition at 10 µM,recombinant murine antibodies and IgG at 1 μg/ml,100%
